Assay [1] deals with neutrophil influx. The experiment in a line: Murine arachidonic acid-induced inflammation model: neutrophil influx in ear, myeloperoxidase activity (% Inh. MPO). To be noted: Mus musculus, female Balb/c mice, 30 mg/kg oral gavage, ear biopsy 3 h after topical arachidonic acid, number of determinations in parentheses. In kind it is in vivo. In short, it runs like this:
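Female Balb/c mice were dosed orally at 30 mg/kg (20% cyclodextran/H2O). Ear biopsies at 3 h; MPO activity by TMB, A405, acetone ear subtracted; inhibition versus vehicle-dosed mice.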

Assay [2] relates to ex vivo stimulated LTB4 production. Nature of the assay: Murine arachidonic acid-induced inflammation model: ex vivo stimulated LTB4 production (% Inh. LTB4). The conditions noted are these: Mus musculus; female Balb/c mice, 30 mg/kg oral gavage; blood taken 3 h after arachidonic acid, ex vivo A23187 stimulation; number of determinations in parentheses. In short, it runs like this: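 Female Balb/c mice got 30 mg/kg orally in 20% cyclodextran/H2O. Heparinized blood in RPMI-1640 was stimulated with A23187 ([…]) for 30 min at 37 °C. LTB4 was measured by ELISA as % inhibition versus vehicle-dosed mice.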

For `O=C1CCCN1C1CCN(Cc2ccc(Oc3nc4ncccc4s3)cc2)CC1` [Example 83, 1-{1-[4-([1,3]Thiazolo[4,5-b]pyridin-2-yloxy)benzyl]piperidin-4-yl}pyrrolidin-2-one], the inhibition in vivo (commonly the drop in the measured response relative to a control, in per cent) at 30 mg/kg in assay [1] came out at 88.2%. In addition, in assay [2], the inhibition – broadly, how much of the control response was suppressed – at 30 mg/kg was determined as 81%.
Consider `NC(=O)N1C[C@H]2C[C@@H]1CN2Cc1ccc(Oc2nc3ncccc3s2)cc1` [Example 266, (1R,4R)-5-[4-([1,3]Thiazolo[4,5-b]pyridin-2-yloxy)benzyl]-2,5-diazabicyclo[2.2.1]heptane-2-carboxamide], for which the inhibition in vivo at 30 mg/kg in assay [1] was determined as 85.8%. Also, the inhibition at 30 mg/kg in assay [2] was 78.6%.
On the same counts, the results for `CC(=O)N1C[C@@H]2C[C@H]1CN2CCOc1ccc(Oc2nc3ncccc3s2)cc1` [Example 14, 2-(4-{2-[(1S,4S)-5-Acetyl-2,5-diazabicyclo[2.2.1]hept-2-yl]ethoxy}phenoxy)[1,3]thiazolo[4,5-b]pyridine] are 72.3% and 84%.
The corresponding values for `CC(=O)N1C[C@@H]2C[C@H]1CN2Cc1ccc(Oc2nc3ncc(C)cc3s2)cc1` [Example 121, 2-(4-{[(1S,4S)-5-Acetyl-2,5-diazabicyclo[2.2.1]hept-2-yl]methyl}phenoxy)-6-methyl[1,3]thiazolo[4,5-b]pyridine] are 83% and 83%.
On the same counts, the results for `CC(=O)N[C@H]1C[C@H]2CC[C@@H](C1)N2Cc1ccc(Oc2nc3ncccc3s2)cc1` [Example 116, meso-N-{(3-endo)-8-[4-([1,3]Thiazolo[4,5-b]pyridin-2-yloxy)benzyl]-8-azabicyclo[3.2.1]oct-3-yl}acetamide] are 70% and 81%.
Regarding `NC(=O)N1C[C@@H]2C[C@H]1CN2CCc1ccc(Oc2nc3ncccc3s2)cc1` [Example 45, (1S,4S)-5-{2-[4-([1,3]Thiazolo[4,5-b]pyridin-2-yloxy)phenyl]ethyl}-2,5-diazabicyclo[2.2.1]heptane-2-carboxamide], the inhibition in vivo at 30 mg/kg in assay [1] stood at 71.1%. In addition, in assay [2], the inhibition at 30 mg/kg turned out to be 86.8%.
The corresponding values for `NC(=O)N1C[C@@H]2C[C@H]1CN2Cc1ccc(Oc2nc3ncccc3s2)cc1` [Example 106, (1S,4S)-5-[4-([1,3]Thiazolo[4,5-b]pyridin-2-yloxy)benzyl]-2,5-diazabicyclo[2.2.1]heptane-2-carboxamide] are 95.2% and 90.5%.
The corresponding values for `CC(=O)N1CC2CN(CCc3ccc(Oc4nc5ncccc5s4)cc3)CC2C1` (stereo not drawn) [Example 73, 2-{4-[2-(5-Acetylhexahydropyrrolo[3,4-c]pyrrol-2(1H)-yl)ethyl]phenoxy}[1,3]thiazolo[4,5-b]pyridine] are 79.4% and 85.7%.
On the same counts, the results for `CC(=O)N1C[C@H]2C[C@@H]1CN2Cc1ccc(Oc2nc3ncccc3s2)cc1` [Example 265, 2-(4-{[(1R,4R)-5-Acetyl-2,5-diazabicyclo[2.2.1]hept-2-yl]methyl}phenoxy)[1,3]thiazolo[4,5-b]pyridine] are 90.8% and 84.4%.
Take `CC(=O)N1C[C@@H]2C[C@H]1CN2CCc1ccc(Oc2nc3ncccc3s2)cc1` [Example 75, 2-(4-{2-[(1S,4S)-5-Acetyl-2,5-diazabicyclo[2.2.1]hept-2-yl]ethyl}phenoxy)[1,3]thiazolo[4,5-b]pyridine]: in assay [1], the inhibition in vivo at 30 mg/kg was 68.1%. Besides, in assay [2], the inhibition at 30 mg/kg was 89.5%.
The corresponding values for `O=C1CCCN1C1CCN(CCOc2ccc(Oc3nc4ncccc4s3)cc2)CC1` [Example 32, 1-(1-{2-[4-([1,3]Thiazolo[4,5-b]pyridin-2-yloxy)phenoxy]ethyl}piperidin-4-yl)pyrrolidin-2-one] are 76% and 89%.
On the same counts, the results for `CC(=O)N1C[C@H]2CC[C@@H](C1)N2CCc1ccc(Oc2nc3ncccc3s2)cc1` [Example 55, meso-2-(4-{2-[3-Acetyl-3,8-diazabicyclo[3.2.1]oct-8-yl]ethyl}phenoxy)[1,3]thiazolo[4,5-b]pyridine] are 73.5% and 83.7%.
Take `NC(=O)C1CCN(CCOc2ccc(Oc3nc4ncccc4s3)cc2)CC1` [Example 31, 1-{2-[4-([1,3]Thiazolo[4,5-b]pyridin-2-yloxy)phenoxy]ethyl}piperidine-4-carboxamide]: the inhibition in vivo at 30 mg/kg in assay [1] stood at 70.5%. For the same compound, the inhibition at 30 mg/kg in assay [2] turned out to be 79.8%.
On the same counts, the results for `CC(=O)N[C@@H]1C[C@H]2CC[C@@H](C1)N2Cc1ccc(Oc2nc3ncccc3s2)cc1` [Example 109, meso-N-{(3-exo)-8-[4-([1,3]Thiazolo[4,5-b]pyridin-2-yloxy)benzyl]-8-azabicyclo[3.2.1]oct-3-yl}acetamide] are 71.5% and 84.8%.
On the same counts, the results for `CC(=O)N1C[C@H]2C[C@@H]1CN2CCOc1ccc(Oc2nc3ncccc3s2)cc1` [Example 267, 2-(4-{2-[(1R,4R)-5-Acetyl-2,5-diazabicyclo[2.2.1]hept-2-yl]ethoxy}phenoxy)[1,3]thiazolo[4,5-b]pyridine] are 90.6% and 83.4%.

The record behind these values is patent US20110190503A1, “Thiazolopyridin-2-yloxy-phenyl and thiazolopyrazin-2-yloxy-phenyl amines as modulators of leukotriene A4 hydrolase” (Janssen Pharmaceutical NV, priority 2008, published 2011).
